From PubChem BioAssay AID328 (DTP/NCI, 2004)
“And” between values parts separate entries of the source, which are not always exact repeats. Identical values can stand only once. Inconclusive results and toxic doses are left out. Rule for the calls: active = survival T/C of 150% or more; inactive = T/C below 125% in these data.

Tested on: BDF1 mice, P388 leukemia ip, median survival T/C
Assay: NCI In Vivo Anticancer Drug Screen. Data for tumor model P388 Leukemia (intraperitoneal) in B6D2F1 (BDF1) mice
Settings: endpoint: median survival time, higher = longer survival
Method in brief: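 In tumour-bearing mice, survival after compound treatment is set against the vehicle group and given as a quotient.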

[1] = dose: 25.0 mg/kg/injection, schedule: Q01DX009 (ip), vehicle: saline with Tween-80
[2] = dose: 50.0 mg/kg/injection, schedule: Q01DX009 (ip), vehicle: saline with Tween-80
[3] = dose: 100.0 mg/kg/injection, schedule: Q01DX009 (ip), vehicle: saline with Tween-80
[4] = dose: 100.0 mg/kg/injection, schedule: Q04DX003 (ip), vehicle: saline with Tween-80
[5] = dose: 200.0 mg/kg/injection, schedule: Q01DX009 (ip), vehicle: saline with Tween-80
[6] = dose: 200.0 mg/kg/injection, schedule: Q04DX003 (ip), vehicle: saline with Tween-80
[7] = dose: 400.0 mg/kg/injection, schedule: Q04DX003 (ip), vehicle: saline with Tween-80

Measured: T/C

CC1(c2cccs2)NC(=O)N(Cl)C1=O (stereo not drawn)
inactive: [1] 97 % of control | dose: 25.0 mg/kg/injection, schedule: Q04DX003 (ip), vehicle: saline with Tween-80 94 % of control | [2] 97 % of control | dose: 50.0 mg/kg/injection, schedule: Q04DX003 (ip), vehicle: saline with Tween-80 102 % of control | [3] 108 % of control | [4] 104 % of control and 107 % of control | [5] 108 % of control | [6] 109 % of control | [7] 107 % of control

CCOC(=O)c1c(C)[nH]c(C)c1-c1ccccc1
inactive: dose: 100.0 mg/kg/injection, schedule: Q01DX001 (ip), vehicle: Klucel (hydroxypropylcellulose) (HPC) 109 % of control | dose: 200.0 mg/kg/injection, schedule: Q01DX001 (ip), vehicle: Klucel (hydroxypropylcellulose) (HPC) 109 % of control | dose: 400.0 mg/kg/injection, schedule: Q01DX001 (ip), vehicle: Klucel (hydroxypropylcellulose) (HPC) 109 % of control

O=C(O)/C=C/c1ccc(-c2cc(C(F)(F)F)cc(C(F)(F)F)c2)o1
inactive: [2] 108 % of control | [3] 90 % of control | [5] 106 % of control

COC(=O)c1ccc(Cn2ccc(=O)n(Cc3ccc(C(=O)OC)cc3)c2=O)cc1
inactive: [4] 100 % of control | [6] 100 % of control | [7] 100 % of control

COc1ccc(Br)cc1/C=N/N=C/c1cc(Br)ccc1OC
inactive: [3] 95 % of control | [5] 95 % of control | dose: 400.0 mg/kg/injection, schedule: Q01DX009 (ip), vehicle: saline with Tween-80 95 % of control

N#Cc1ccc(C[n+]2cccc3c([N+](=O)[O-])cccc32)cc1
inactive: dose: 12.5 mg/kg/injection, schedule: Q01DX009 (ip), vehicle: saline with Tween-80 103 % of control | [1] 108 % of control | [2] 118 % of control

COn1nnc2c([N+](=O)[O-])cccc21
inactive: [2] 109 % of control

COc1cccc2ccc(CC(O)(c3ccccc3)c3ccccc3)nc12
inactive: [1] 91 % of control | [2] 100 % of control | [3] 100 % of control

S=c1[nH]nc(-c2ccncc2)n1C1CCCCC1
inactive: dose: 50.0 mg/kg/injection, schedule: Q04DX002 (ip), vehicle: saline with Tween-80 96 % of control | dose: 100.0 mg/kg/injection, schedule: Q04DX002 (ip), vehicle: saline with Tween-80 92 % of control | dose: 200.0 mg/kg/injection, schedule: Q04DX002 (ip), vehicle: saline with Tween-80 97 % of control

OC1CCCC2CCC[N-]C12.OC1CCCC2CCC[N-]C12.[Mn+2] (stereo not drawn)
inactive: dose: 6.25 mg/kg/injection, schedule: Q01DX009 (ip), vehicle: DMSO 107 % of control | dose: 12.5 mg/kg/injection, schedule: Q01DX009 (ip), vehicle: DMSO 110 % of control | dose: 25.0 mg/kg/injection, schedule: Q01DX009 (ip), vehicle: DMSO 108 % of control | dose: 50.0 mg/kg/injection, schedule: Q01DX009 (ip), vehicle: DMSO 123 % of control | dose: 100.0 mg/kg/injection, schedule: Q01DX009 (ip), vehicle: DMSO 100 % of control

c1coc(-c2ncnc3c2Cc2ccccc2-3)c1
inactive: dose: 25.0 mg/kg/injection, schedule: Q01DX009 (ip), vehicle: Klucel (hydroxypropylcellulose) (HPC) 100 % of control | dose: 50.0 mg/kg/injection, schedule: Q01DX009 (ip), vehicle: Klucel (hydroxypropylcellulose) (HPC) 118 % of control | dose: 100.0 mg/kg/injection, schedule: Q01DX009 (ip), vehicle: Klucel (hydroxypropylcellulose) (HPC) 109 % of control | dose: 150.0 mg/kg/injection, schedule: Q01DX009 (ip), vehicle: Klucel (hydroxypropylcellulose) (HPC) 91 % of control

COc1ccc(OP2OCC(C)O2)cc1 (stereo not drawn)
inactive: [2] 103 % of control | [3] 102 % of control | [5] 102 % of control

CCCCN=CC(C)(C)NCCCC
inactive: dose: 50.0 mg/kg/injection, schedule: Q01DX009 (ip), vehicle: saline 91 % of control and 99 % of control | dose: 50.0 mg/kg/injection, schedule: Q04DX003 (ip), vehicle: saline 103 % of control | dose: 100.0 mg/kg/injection, schedule: Q01DX009 (ip), vehicle: saline 98 % of control and 107 % of control | dose: 100.0 mg/kg/injection, schedule: Q04DX003 (ip), vehicle: saline 103 % of control | dose: 200.0 mg/kg/injection, schedule: Q04DX003 (ip), vehicle: saline 100 % of control
